Results on 16 compounds are retold here after ChEMBL document CHEMBL1201862, “PubChem BioAssay data set” (2004).

Calls of active or inactive are those of the source. Where only a bound is given, the exact number is not on record here.

Assay [1] concerns the target Beta-galactosidase (Escherichia coli, UniProt Q8VNN2). The assay can be described thus: Dose response counterscreen for EBI2 assay utilizing the enzyme, b-galactosidase. It counts as functional.
For assay [2], the target named is T1, Fatty acid synthase (Homo sapiens, UniProt P49327). Nature of the assay: inhibition of human FAS-TE enzyme activity – biochemical, endpoint fluorescence intensity, uHTS hits, dose response (AID 624327).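 Also: fluorescence from hydrolysis of an O-methyl fluorescein acyl ester substrate by the enzyme.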 It counts as functional.
T1 sequence (P49327 whole entry): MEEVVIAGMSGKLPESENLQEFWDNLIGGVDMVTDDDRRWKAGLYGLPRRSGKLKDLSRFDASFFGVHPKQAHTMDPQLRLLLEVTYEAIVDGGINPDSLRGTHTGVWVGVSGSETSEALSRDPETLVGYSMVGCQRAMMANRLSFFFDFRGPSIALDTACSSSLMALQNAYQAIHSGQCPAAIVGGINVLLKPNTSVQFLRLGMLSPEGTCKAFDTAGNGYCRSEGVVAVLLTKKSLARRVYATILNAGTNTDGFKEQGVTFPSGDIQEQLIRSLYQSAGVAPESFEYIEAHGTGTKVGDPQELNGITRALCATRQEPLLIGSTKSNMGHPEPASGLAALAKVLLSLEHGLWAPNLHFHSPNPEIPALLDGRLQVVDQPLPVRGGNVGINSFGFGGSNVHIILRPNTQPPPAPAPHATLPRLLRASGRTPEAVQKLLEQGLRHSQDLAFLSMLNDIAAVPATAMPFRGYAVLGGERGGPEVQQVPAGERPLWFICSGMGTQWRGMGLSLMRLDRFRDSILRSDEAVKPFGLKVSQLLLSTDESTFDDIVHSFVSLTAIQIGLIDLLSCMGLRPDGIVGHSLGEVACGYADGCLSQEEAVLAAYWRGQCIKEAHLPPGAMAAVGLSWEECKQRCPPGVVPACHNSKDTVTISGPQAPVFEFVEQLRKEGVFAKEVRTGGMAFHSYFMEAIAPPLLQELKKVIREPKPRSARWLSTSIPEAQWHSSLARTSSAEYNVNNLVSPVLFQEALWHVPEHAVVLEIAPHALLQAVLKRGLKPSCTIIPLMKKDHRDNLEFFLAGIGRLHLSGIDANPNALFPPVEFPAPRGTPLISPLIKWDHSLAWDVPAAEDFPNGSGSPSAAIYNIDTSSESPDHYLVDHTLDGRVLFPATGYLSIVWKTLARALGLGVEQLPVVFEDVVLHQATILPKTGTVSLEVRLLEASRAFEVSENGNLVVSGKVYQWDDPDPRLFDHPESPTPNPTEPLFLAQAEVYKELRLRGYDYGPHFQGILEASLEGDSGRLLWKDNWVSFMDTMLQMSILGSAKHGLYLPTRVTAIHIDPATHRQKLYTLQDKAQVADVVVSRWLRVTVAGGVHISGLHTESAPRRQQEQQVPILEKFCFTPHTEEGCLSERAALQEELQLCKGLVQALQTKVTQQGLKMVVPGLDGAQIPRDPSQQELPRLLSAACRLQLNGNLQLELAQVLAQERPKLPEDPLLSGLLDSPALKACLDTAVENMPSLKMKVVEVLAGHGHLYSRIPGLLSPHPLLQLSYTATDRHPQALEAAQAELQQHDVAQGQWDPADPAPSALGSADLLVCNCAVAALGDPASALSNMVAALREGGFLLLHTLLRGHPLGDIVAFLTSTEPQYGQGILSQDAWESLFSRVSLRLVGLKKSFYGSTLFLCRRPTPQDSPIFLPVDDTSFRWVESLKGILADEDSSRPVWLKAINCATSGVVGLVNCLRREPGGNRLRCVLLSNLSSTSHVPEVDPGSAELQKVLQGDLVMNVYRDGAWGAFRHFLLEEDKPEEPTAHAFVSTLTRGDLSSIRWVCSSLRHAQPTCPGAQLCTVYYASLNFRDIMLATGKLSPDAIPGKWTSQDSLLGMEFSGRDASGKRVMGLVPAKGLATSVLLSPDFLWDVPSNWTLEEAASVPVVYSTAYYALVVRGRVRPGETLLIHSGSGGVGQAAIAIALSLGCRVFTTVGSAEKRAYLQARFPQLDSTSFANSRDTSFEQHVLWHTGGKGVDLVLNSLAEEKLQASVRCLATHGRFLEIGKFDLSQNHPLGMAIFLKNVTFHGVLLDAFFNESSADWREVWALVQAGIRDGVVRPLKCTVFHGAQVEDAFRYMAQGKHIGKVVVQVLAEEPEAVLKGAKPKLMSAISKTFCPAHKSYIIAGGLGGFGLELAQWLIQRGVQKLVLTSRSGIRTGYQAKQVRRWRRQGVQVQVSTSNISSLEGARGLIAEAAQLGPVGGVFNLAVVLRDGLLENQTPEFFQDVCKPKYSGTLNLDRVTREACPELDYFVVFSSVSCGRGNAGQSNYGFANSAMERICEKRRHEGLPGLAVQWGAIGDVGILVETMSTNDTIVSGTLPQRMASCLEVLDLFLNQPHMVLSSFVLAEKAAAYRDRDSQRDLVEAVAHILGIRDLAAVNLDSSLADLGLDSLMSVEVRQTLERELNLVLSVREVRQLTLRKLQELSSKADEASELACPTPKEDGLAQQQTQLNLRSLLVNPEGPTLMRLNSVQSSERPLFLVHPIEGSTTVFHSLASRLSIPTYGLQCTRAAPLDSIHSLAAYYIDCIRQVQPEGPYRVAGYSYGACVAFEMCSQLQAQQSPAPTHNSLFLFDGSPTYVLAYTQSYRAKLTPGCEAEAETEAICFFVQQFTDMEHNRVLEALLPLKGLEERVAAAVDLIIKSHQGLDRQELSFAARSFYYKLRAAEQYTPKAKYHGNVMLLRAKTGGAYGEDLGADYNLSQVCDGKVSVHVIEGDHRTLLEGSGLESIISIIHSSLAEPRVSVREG
The target in assay [3] is T1, Fatty acid synthase. Nature of the assay: inhibition of human FAS-TE enzyme activity – biochemical, kinetic fluorescence intensity, dose response (AID 624326).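 Also: rate of fluorescence rise from hydrolysis of a fluorogenic O-methyl fluorescein ester substrate.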 It counts as functional.
A short description of assay [4]: Luminescence Cell-Based Dose Confirmation HTS to Identify Inhibitors of Platelet Dense Granule Release. [Related pubchem assays: 1663 (Primary HTS), 1678 (Summary of Project)]. It counts as functional.
For assay [5], the target named is Luciferin 4-monooxygenase (Photinus pyralis, UniProt P08659). Nature of the assay: inhibition of purified Photinus pyralis luciferase – biochemical, luminescence, dose response (AID 1891).
Chain of Luciferin 4-monooxygenase (P08659 whole entry): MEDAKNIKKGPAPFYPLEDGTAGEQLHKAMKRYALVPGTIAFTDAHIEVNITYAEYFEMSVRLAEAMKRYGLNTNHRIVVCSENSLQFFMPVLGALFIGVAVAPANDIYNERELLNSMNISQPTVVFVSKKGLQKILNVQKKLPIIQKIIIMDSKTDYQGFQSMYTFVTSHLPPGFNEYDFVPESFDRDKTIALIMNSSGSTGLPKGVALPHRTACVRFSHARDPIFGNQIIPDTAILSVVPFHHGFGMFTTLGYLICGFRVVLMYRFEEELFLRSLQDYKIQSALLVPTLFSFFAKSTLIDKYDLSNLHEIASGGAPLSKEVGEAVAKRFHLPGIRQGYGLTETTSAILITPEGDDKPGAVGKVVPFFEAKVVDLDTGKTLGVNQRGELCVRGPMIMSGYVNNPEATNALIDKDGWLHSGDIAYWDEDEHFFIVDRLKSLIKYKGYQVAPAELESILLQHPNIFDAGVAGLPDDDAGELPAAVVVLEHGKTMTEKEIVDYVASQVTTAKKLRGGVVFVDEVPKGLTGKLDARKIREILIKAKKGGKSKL
In assay [6] the target is T2, Heat shock factor protein 1 (Mus musculus, UniProt P38532).
T2 sequence (P38532 whole entry): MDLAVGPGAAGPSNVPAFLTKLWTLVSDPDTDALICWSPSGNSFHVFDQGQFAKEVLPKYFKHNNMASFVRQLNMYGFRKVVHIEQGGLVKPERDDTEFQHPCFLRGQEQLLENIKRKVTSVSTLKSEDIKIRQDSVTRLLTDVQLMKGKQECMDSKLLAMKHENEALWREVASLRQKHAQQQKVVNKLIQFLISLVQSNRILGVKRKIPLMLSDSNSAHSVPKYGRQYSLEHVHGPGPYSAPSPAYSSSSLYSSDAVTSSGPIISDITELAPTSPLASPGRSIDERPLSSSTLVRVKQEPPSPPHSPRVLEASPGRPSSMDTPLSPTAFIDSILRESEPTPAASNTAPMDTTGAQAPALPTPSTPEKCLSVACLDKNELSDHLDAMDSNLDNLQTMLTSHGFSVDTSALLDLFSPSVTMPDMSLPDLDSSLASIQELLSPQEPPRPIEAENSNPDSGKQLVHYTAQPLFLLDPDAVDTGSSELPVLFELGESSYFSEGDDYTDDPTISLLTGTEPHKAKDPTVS
Nature of the assay: decrease of HSF1-responsive luciferase luminescence – cell-based, NIH3T3, dose retest, confirmation (AID 2382).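 Also: NIH3T3 fibroblasts with HSF1-driven luciferase reporter stressed by proteasome inhibitor MG132; luminescence from HSF1-driven luciferase expression after 8 hours of MG132 stress.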 It counts as functional.

The subject of assay [7] is HEK293. The assay can be described thus: EBV LMP1 TES2 canonical NF-kB signalling blockers – cell-based, HEK293, luciferase, cherry-pick, dose response (AID 588343). It counts as functional. The conditions noted are these: Homo sapiens.
Assay [8] concerns the target T3, Protein skinhead-1 (Caenorhabditis elegans, UniProt P34707).
T3 sequence (P34707 whole entry): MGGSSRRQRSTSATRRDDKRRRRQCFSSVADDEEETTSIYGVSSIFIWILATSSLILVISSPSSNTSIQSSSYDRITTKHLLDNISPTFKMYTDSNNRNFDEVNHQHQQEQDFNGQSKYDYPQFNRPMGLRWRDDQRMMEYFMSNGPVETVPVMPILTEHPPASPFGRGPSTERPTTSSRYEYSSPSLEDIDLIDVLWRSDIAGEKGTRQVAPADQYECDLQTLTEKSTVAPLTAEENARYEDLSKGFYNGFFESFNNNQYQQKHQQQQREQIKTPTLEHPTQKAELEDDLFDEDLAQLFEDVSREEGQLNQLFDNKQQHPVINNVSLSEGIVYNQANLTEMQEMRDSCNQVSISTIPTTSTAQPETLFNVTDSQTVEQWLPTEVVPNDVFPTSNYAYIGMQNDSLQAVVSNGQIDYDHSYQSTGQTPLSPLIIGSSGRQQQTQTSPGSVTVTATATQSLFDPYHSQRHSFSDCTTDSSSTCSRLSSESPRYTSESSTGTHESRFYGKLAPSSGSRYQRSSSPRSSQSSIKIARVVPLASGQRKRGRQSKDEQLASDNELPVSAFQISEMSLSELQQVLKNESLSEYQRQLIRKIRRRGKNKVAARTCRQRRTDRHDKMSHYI
It counts as functional.

Assay [9] concerns the target T4, Sentrin-specific protease 8 (Homo sapiens, UniProt Q96LD8).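 Also: luminescence read-out of SENP8 inhibition, dose-response confirmation following an ultra-high-throughput screen.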
T4 sequence (Q96LD8 whole entry): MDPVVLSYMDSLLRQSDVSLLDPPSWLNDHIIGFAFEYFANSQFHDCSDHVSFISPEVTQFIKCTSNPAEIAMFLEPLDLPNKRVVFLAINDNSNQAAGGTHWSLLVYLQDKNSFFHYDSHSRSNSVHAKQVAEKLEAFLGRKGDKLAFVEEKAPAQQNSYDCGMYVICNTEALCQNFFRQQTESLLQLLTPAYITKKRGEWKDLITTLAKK
It counts as functional.

The target in assay [10] is T5, Caspase-3 (Homo sapiens, UniProt P42574).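 Also: Dose-response selectivity test against caspase-3 for candidate inhibitors of sentrin-specific proteases (SENPs).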
T5 sequence (P42574 whole entry): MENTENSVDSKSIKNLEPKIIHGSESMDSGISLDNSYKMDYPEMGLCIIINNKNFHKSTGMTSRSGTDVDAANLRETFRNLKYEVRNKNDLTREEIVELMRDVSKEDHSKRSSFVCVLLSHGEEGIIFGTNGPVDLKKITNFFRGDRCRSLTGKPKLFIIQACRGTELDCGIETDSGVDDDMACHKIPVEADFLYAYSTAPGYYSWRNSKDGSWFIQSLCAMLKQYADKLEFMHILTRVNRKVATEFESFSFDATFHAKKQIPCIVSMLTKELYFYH
The format is functional.

For assay [11], the target named is T6, Sentrin-specific protease 6 (Homo sapiens, UniProt Q9GZR1).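 Also: Luminescence-based dose-response confirmatory assay of SENP6 inhibition, following up an ultra-high-throughput screen.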
T6 sequence (Q9GZR1 whole entry): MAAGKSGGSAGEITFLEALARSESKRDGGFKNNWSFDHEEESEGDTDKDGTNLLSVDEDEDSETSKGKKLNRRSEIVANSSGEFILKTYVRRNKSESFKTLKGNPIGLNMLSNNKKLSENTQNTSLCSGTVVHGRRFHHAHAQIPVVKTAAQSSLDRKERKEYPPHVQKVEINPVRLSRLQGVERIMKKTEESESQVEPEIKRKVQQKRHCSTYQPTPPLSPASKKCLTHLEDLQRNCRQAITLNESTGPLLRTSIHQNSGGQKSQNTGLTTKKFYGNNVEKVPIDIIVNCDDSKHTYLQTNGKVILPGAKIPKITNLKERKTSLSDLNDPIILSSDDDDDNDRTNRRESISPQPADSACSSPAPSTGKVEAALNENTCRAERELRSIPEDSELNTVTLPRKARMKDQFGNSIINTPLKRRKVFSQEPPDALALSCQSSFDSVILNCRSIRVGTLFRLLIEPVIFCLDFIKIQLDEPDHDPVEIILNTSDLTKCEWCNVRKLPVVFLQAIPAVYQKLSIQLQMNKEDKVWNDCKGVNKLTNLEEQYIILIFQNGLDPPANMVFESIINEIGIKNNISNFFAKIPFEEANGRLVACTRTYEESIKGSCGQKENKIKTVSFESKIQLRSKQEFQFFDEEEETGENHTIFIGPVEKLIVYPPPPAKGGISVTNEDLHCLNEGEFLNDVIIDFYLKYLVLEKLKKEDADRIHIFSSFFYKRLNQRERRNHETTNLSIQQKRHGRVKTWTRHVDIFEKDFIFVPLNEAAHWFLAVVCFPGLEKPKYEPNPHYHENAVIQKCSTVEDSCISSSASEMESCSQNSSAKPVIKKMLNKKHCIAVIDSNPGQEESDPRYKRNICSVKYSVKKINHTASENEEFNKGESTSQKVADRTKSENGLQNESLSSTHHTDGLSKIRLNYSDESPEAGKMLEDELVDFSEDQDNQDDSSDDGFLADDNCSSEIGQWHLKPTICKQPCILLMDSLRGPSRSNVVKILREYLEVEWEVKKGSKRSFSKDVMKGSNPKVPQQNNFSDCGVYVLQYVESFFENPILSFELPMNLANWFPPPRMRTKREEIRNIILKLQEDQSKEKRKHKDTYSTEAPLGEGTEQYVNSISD
The format is functional.

Assay [12] concerns the target T7, Sentrin-specific protease 7 (Homo sapiens, UniProt Q9BQF6).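 Also: Luminescence-based dose-response confirmation of ultra-high-throughput screening hits, measuring inhibition of SENP7.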
T7 sequence (Q9BQF6 whole entry): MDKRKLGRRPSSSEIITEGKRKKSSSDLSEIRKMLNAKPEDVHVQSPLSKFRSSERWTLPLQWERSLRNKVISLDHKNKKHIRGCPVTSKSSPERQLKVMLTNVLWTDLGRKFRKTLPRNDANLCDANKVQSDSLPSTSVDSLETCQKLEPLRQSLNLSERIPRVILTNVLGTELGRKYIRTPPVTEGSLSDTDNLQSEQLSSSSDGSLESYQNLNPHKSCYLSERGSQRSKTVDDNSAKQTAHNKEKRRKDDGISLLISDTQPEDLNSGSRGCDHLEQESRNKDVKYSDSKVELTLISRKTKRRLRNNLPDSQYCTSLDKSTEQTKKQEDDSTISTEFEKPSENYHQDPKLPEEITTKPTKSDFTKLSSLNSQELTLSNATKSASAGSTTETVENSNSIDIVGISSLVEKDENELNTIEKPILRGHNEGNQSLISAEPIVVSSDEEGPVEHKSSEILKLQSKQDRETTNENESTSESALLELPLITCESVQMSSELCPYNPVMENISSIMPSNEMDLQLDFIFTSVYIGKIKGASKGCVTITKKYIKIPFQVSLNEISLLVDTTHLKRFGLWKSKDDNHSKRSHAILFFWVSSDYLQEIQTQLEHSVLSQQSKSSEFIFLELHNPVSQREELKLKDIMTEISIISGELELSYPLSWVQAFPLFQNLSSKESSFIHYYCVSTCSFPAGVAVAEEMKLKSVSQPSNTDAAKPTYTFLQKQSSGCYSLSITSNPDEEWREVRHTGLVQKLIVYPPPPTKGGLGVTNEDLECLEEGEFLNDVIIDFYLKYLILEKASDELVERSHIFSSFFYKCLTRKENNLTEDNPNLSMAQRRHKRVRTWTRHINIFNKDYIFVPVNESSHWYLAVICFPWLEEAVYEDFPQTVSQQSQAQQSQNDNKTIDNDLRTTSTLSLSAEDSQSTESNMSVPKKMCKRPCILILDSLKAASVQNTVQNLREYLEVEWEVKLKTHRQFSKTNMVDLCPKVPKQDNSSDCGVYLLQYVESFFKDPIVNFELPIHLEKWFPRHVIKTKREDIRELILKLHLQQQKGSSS
The format is functional.

The nature of assay [13]: cells. The format is functional.
A short description of assay [14]: toxicity toward HepG2 liver cells – cell-based, plate reader, cherry-pick, antagonist series, cytotoxicity control, dose response (AID 743416). The format is functional.

Chain of Beta-galactosidase (Q8VNN2 whole entry): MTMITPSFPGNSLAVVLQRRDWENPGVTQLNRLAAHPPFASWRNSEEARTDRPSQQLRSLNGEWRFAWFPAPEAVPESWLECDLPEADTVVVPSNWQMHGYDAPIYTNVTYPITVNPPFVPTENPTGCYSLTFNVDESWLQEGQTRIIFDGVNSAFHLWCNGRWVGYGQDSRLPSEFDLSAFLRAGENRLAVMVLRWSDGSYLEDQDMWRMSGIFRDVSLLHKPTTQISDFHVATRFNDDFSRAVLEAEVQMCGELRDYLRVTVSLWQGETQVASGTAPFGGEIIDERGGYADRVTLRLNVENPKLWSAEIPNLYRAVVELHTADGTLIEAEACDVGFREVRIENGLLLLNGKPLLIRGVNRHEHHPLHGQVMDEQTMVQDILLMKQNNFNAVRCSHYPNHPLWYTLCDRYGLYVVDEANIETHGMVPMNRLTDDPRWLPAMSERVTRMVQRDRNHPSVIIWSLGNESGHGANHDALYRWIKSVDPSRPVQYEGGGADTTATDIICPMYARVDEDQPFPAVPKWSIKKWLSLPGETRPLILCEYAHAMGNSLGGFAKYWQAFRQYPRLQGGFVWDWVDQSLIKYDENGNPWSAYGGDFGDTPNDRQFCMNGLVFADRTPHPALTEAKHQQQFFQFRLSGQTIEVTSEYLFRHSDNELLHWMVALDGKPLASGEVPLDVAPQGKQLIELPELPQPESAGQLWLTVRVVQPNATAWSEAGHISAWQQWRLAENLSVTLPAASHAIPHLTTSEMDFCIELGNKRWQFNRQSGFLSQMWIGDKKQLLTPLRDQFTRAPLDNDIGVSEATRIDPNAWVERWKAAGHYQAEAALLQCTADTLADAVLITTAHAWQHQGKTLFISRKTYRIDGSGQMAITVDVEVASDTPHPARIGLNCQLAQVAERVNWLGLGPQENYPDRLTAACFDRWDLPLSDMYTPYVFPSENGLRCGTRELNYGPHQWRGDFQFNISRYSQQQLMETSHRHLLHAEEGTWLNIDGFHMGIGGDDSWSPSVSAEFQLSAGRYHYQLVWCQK

As for `C[C@@H]1CN([C@H](C)CO)S(=O)(=O)c2ccc(C#Cc3ccccc3F)cc2O[C@@H]1CN(C)C(=O)Cc1ccccc1`, the IC50 is > 80 µM (inactive) in assay [1], 3.71 µM (active) in assay [2] and 3.79 µM (active) in assay [3].

For the compound `CC(=O)Oc1ccc(/C=C/c2nc3ccccc3c(=O)o2)cc1`, the results for the EC50 in assay [4] and in assay [5] were 0.333 µM (active) and 0.359 µM (active), respectively.

Take `CC(C)(C)CNC(=O)c1cccc2c1C(=O)c1ccc(N3CCCC3)cc1S2(=O)=O`: in [1], the IC50 was > 80 µM (inactive).

As to `O=C(/C=C/Nc1ccc(F)cc1Br)c1ccccc1`, the concentration giving a half-maximal response (EC50) was 3.37 µM (active) in assay [4], < 160 nM (active) in assay [6] and 0.283 µM (active) in assay [5]. In addition, the AC50 in [7] is 1.38 µM (active). In addition, the IC50 in assay [8] is > 100 µM (inactive).

`O=C1/C(=C\c2ccc(O)cc2)SC(=S)N1Cc1ccccc1`: the half-maximal inhibitory concentration (IC50) in assay [9] was 9.59 µM (active); in assay [10], 41 µM (active); in assay [11], 8 µM (active); in [12] it was 16 µM (active).

Take `COc1cccc(NC(=O)Cn2c3ccc(F)cc3c3nc4n(c(=O)c32)CCCS4)c1`: the IC50 in [1] is > 80 µM (inactive).

Take `COc1cc(/C=C(\C#N)C(=O)Nc2ccc3ccccc3c2)c([N+](=O)[O-])cc1OC`: the IC50 in assay [1] was > 80 µM (inactive).

As for `CN1/C(=C\C(=O)COC(=O)c2ccc([N+](=O)[O-])o2)C(C)(C)c2ccccc21`, the EC50 in assay [4] and in [5] was > 112 µM (not active) each time. In assay [13], the IC50 was 1.22 µM (active).

For the compound `Cc1[nH]c2nc(SCC(=O)c3ccccc3)nc-2cc1Br`, the EC50 in [4] and in [5] was > 112 µM (not active) each time.

As for `COc1ccc(COc2ccc3c(C)cc(=O)oc3c2)cc1`, the half-inhibitory concentration (IC50) is 32.3 µM (active) in [9], 20 µM (active) in assay [10], 21.6 µM (active) in assay [11] and 9.04 µM (active) in [12].

Take `Cc1ccc(C)c(-c2nnc(NC(=O)CS(=O)(=O)c3ccccc3)o2)c1`: the EC50 in assay [4] and in assay [5] was > 112 µM (not active) each time.

As for `CCOc1ccc(/C=N/NC(=O)c2ccc(Cn3cc(Br)cn3)o2)cc1`, the IC50 in assay [9] was 56.5 µM (active); in assay [10], 35.4 µM (active); in [11], 52.7 µM (active); in [12], 13.2 µM (active).

For the compound `O=C(CCCN1C(=O)/C(=C/c2cccc(Br)c2)SC1=S)N1CCOCC1`, the half-maximal inhibitory concentration (IC50) was 78.1 µM (active) in assay [9], > 100 µM (inactive) in [10], 79.6 µM (active) in [11] and 45.6 µM (active) in assay [12].

Take `O=C(c1ccccc1)C1CCN(C(=O)c2ccc(Cl)cc2)CC1`: in assay [1], the IC50 is > 80 µM (inactive).

Turning to `COc1ccc(NC(=O)c2sc(SCc3ccccc3)nc2N)cc1`, the IC50 in assay [1] was > 80 µM (inactive).

`Cc1ccc(CNS(=O)(=O)c2ccc3c(c2)CCN3C(=O)CCCC(=O)O)cc1`: in assay [14], the AC50 was > 52 µM (inactive).
